Experimental findings from patent EP1149092B1, “4- AND 5-ALKYNYLOXINDOLES AND 4- AND 5-ALKENYLOXINDOLES” (F. HOFFMANN-LA ROCHE AG, priority 1998, dated 2000) are described below.

The target of the test is rat SAPK (isoform β) (Rattus norvegicus, UniProt P49187). The test is described as follows: SAPK FlashPlate Assay (inhibition of cJun phosphorylation). The class given is biochemical. The note with it: GST-cJun substrate, 30 minutes at 37 °C. How it is done:
"IC50" refers to the concentration of a particular 4- or 5-alkynyloxindole or 4-or 5-alkenyloxindole required to inhibit 50% of cJun phosphorylation, which is a measure of inhibition of SAPK activity. IC50 can be measured, inter alia, using the assay described herein in Example 102.
Human JNK is highly homologous to rat SAPK. To measure the inhibitory activity of test compounds, the compounds were tested in the rat SAPK assay.
For the SAPK assay, purified GST-cJun (a chimeric protein containing cJun, a natural substrate of JNK) was coated on 96 well FlashPlates (New England Nuclear, Boston, MA). Purified rat SAPK (isoform β, Kyriakis et al. supra) was preincubated with preparations containing MEKK-1 and MKK4 for 30 minutes at 37 °C in assay buffer containing 25 mM HEPES, pH 7.5, 150 mM NaCl, 20 mM MgCl2, 2 mM DTT, 0.001% Tween 20, 1 µM ATP freshly added. In the preincubation step, MEKK-1 phosphorylates and activates MKK-4, which in tum phosphorylates and activates SAPK. The activated SAPK was then added to the cJun coated FlashPlates along with ^33P-ATP (0.32 µCi per reaction) and test compounds. The plates were incubated for 30 minutes at 37 °C, then washed with PBS, 0.01% Tween 20, and counted in the Topcount scintillation counter (Packard Instrument Co., Downers Grove, IL). Dilutions of compounds were tested in duplicate in each assay. The percent inhibition of cJun phosphorylation (a measure of inhibition of SAPK activity) was determined by the following formula: [formula] where "test compound" refers to the average counts per minute of the test duplicates, "nonspecific" refers to the average counts per minute when no SAPK was added, and "total" refers to the average counts per minute when no compound was added.

Sequence of rat SAPK (isoform β) (P49187 whole entry, canonical isoform): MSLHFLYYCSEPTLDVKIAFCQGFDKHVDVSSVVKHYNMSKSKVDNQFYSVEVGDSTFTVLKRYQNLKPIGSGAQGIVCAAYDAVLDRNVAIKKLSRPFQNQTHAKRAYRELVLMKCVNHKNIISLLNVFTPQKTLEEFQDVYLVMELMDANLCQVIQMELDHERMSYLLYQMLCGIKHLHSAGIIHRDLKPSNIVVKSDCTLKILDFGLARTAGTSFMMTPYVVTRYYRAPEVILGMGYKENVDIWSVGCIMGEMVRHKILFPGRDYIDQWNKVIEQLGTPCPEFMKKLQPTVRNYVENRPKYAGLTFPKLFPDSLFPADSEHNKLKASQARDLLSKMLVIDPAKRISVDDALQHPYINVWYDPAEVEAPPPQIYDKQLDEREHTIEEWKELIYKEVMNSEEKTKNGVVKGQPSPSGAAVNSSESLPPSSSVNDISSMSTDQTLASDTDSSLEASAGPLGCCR

Compound `COc1cc[nH]c1/C=C1\C(=O)Nc2cccc(C#CC(O)c3ccc(NC(C)=O)cc3)c21` (racemic) [BBB, rac-(Z)-4-[3-(4-Acetamidophenyl)-3-hydroxy-1-propynyl]-1,3-dihydro-3-[(3-methoxy-1H-pyrrol-2-yl)methylene]-2H-indol-2-one] yielded a concentration for half-maximal inhibition (IC50) of less than 1 µM.
The same measure for `COc1ccccc1C(O)C#Cc1cccc2c1/C(=C/c1[nH]ccc1OC)C(=O)N2` (racemic) [Compound M, rac-(Z)-1,3-Dihydro-4-[3-hydroxy-3-(2-methoxyphenyl)-1-propynyl]-3-[(3-methoxy-1H-pyrrol-2-yl)methylene]-2H-indol-2-one]: less than 1 µM.
As for `COc1cc(C(O)C#Cc2cccc3c2/C(=C/c2[nH]ccc2OC)C(=O)N3)ccc1OCCN1CCOCC1` (racemic) [Compound MM, rac-(Z)-1,3-Dihydro-4-[3-hydroxy-3-[3-methoxy-4-[2-(4-morpholinyl)-ethoxy]-phenyl]-1-propynyl]-3-[(3-methoxy-1H-pyrrol-2-yl)methylene]-2H-indol-2-one], the IC50 was less than 1 µM.
The same measure for `COc1cc[nH]c1/C=C1\C(=O)Nc2cccc(C#CC(C)(O)c3ccccc3)c21` (racemic) [Compound T, rac-(Z)-1,3-Dihydro-4-[3-hydroxy-3-phenyl-1-butynyl]-3-[(3-methoxy-1H-pyrrol-2-yl)methylene]-2H-indol-2-one]: 0.253 µM; for `COc1cc[nH]c1/C=C1\C(=O)Nc2cccc(C#CC(O)c3ccc(OCCN4CCOCC4)cc3)c21` (racemic) [Compound TT, rac-(Z)-1,3-Dihydro-4-[3-hydroxy-3-[4-[2-(4-morpholinyl)-ethoxy]-phenyl]-1-propynyl]-3-[(3-methoxy-1H-pyrrol-2-yl)methylene]-2H-indol-2-one]: less than 1 µM.
Regarding `COc1cc[nH]c1/C=C1\C(=O)Nc2cccc(C#CC(O)c3ccc[nH]3)c21` (racemic) [DD, rac-(Z)-1,3-Dihydro-4-[3-hydroxy-3-(1H-pyrrol-2-yl)-1-propynyl]-3-[(3-methoxy-1H-pyrrol-2-yl)methylene]-2H-indol-2-one], the IC50 was less than 1 µM.
In turn, `COc1ccc(C(O)C#Cc2cccc3c2/C(=C/c2[nH]ccc2OC)C(=O)N3)cc1OC` (racemic) [FF, rac-(Z)-1,3-Dihydro-4-[3-(3,4-dimethoxyphenyl)-3-hydroxy-1-propynyl]-3-[(3-methoxy-1H-pyrrol-2-yl)methylene]-2H-indol-2-one] gave an IC50 of less than 1 µM.
`COc1ccc(C(O)C#Cc2cccc3c2/C(=C/c2[nH]ccc2OC)C(=O)N3)cc1O` (racemic) [HH, rac-(Z)-1,3-Dihydro-4-[3-hydroxy-3-(3-hydroxy-4-methoxyphenyl)-1-propynyl]-3-[(3-methoxy-1H-pyrrol-2-yl)methylene]-2H-indol-2-one] had an IC50 of less than 1 µM.
In the case of `COc1cc[nH]c1/C=C1\C(=O)Nc2cccc(C#CC(O)c3sccc3OC)c21` (racemic) [OO, rac-(Z)-1,3-Dihydro-4-[3-hydroxy-3-(3-methoxy-2-thiophenyl)-1-propynyl]-3-[(3-methoxy-1H-pyrrol-2-yl)methylene]-2H-indol-2-one], the IC50 was less than 1 µM.
Turning to `COc1cc(OC)c(C(O)C#Cc2cccc3c2/C(=C/c2[nH]ccc2OC)C(=O)N3)cc1OC` (racemic) [PP, rac-(Z)-1,3-Dihydro-4-[3-hydroxy-3-(2,4,5-trimethoxyphenyl)-1-propynyl]-3-[(3-methoxy-1H-pyrrol-2-yl)methylene]-2H-indol-2-one], the IC50 is less than 1 µM.
Consider `COc1cc[nH]c1/C=C1\C(=O)Nc2cccc(C#CC(O)c3ccc(O)cc3)c21` (racemic) [Q, rac-(Z)-1,3-Dihydro-4-[3-hydroxy-3-(4-hydroxyphenyl)-1-propynyl]-3-[(3-methoxy-1H-pyrrol-2-yl)methylene]-2H-indol-2-one], for which the IC50 was less than 1 µM.
`COc1cc(C(O)C#Cc2cccc3c2/C(=C/c2[nH]ccc2OC)C(=O)N3)ccc1OCC(=O)O` (racemic) [RR, rac-(Z)-[4-[3-[2,3-Dihydro-3-[(3-methoxy-1H-pyrrol-2-yl)methylene]-2-oxo-1H-indol-4-yl]-1-hydroxy-2-propynyl]-2-methoxyphenoxy]acetic acid] displayed an IC50 of less than 1 µM.
As for `COc1cc[nH]c1/C=C1\C(=O)Nc2cccc(C#CC(O)c3cc(OC)c4c(c3)OCO4)c21` (racemic) [SS, rac-(Z)-4-[3-hydroxy-3-(4-methoxy-1,3-benzodioxol-6-yl)-1-propynyl]-1,3-dihydro-3-[(3-methoxy-1H-pyrrol-2-yl)methylene]-2H-indol-2-one], the figure is less than 1 µM; as for `COc1cc[nH]c1/C=C1\C(=O)Nc2cccc(C#CC(O)c3ccc(Cl)cc3OCSC)c21` (racemic) [UU, rac-(Z)-4-[3-(4-Chloro-2-methylsulfanylmethoxyphenyl)-3-hydroxy-1-propynyl]-1,3-dihydro-3-[(3-methoxy-1H-pyrrol-2-yl)methylene]-2H-indol-2-one], less than 1 µM.
Take `COc1cc[nH]c1/C=C1\C(=O)Nc2cccc(C#CC(O)c3ccc(OCCCN(C)C)cc3)c21` (racemic) [V, rac-(Z)-1,3-Dihydro-4-[3-[4-(3-dimethylaminopropoxy)-phenyl]-3-hydroxy-1-propynyl]-3-[(3-methoxy-1H-pyrrol-2-yl)methylene]-2H-indol-2-one]: the IC50 worked out at 0.034 µM.
Regarding `COc1cc[nH]c1/C=C1\C(=O)Nc2cccc(C#CC(O)c3ccco3)c21` (racemic) [VV, rac-(Z)-1,3-Dihydro-4-[3-(2-furanyl)-3-hydroxy-1-propynyl]-3-[(3-methoxy-1H-pyrrol-2-yl)methylene]-2H-indol-2-one], the IC50 was less than 1 µM.
The same measure for `COc1cc[nH]c1/C=C1\C(=O)Nc2cccc(C#CC(O)c3ccc(OCC(=O)OC(C)(C)C)cc3)c21` (racemic) [XX, rac-(Z)-[4-[3-[2,3-dihydro-3-[(3-methoxy-1H-pyrrol-2-yl)methylene]-2-oxo-1H-indol-4-yl]-1-hydroxy-2-propynyl]phenoxy]acetic acid 1,1-dimethylethyl ester]: less than 1 µM; for `COc1cc[nH]c1/C=C1\C(=O)Nc2cccc(C#CC(O)c3ccc(OCC(=O)O)cc3)c21` (racemic) [YY, rac-(Z)-[4-[3-[2,3-dihydro-3-[(3-methoxy-1H-pyrrol-2-yl)methylene]-2-oxo-1H-indol-4-yl]-1-hydroxy-2-propynyl]phenoxy]acetic acid]: less than 1 µM; for `COc1cc[nH]c1/C=C1\C(=O)Nc2cccc(C#Cc3ccccn3)c21` [DDD, (Z)-1,3-Dihydro-3-[(3-methoxy-1H-pyrrol-2-yl)methylene]-4-[(2-pyridinyl)ethynyl]-2H-indol-2-one]: less than 1 µM.
As for `COc1cc[nH]c1/C=C1\C(=O)Nc2cccc(C#Cc3ccncc3)c21` [EEE, (Z)-1,3-Dihydro-3-[(3-methoxy-1 H-pyrrol-2-yl)methylene]-4-[(4-pyridinyl)ethynyl]-2H-indol-2-one], the figure is less than 1 µM; as for `COc1cc[nH]c1/C=C1\C(=O)Nc2ccc([N+](=O)[O-])c(C#Cc3cccnc3)c21` [GGG, (Z)-1,3-Dihydro-3-[(3-methoxy-1H-pyrrol-2-yl)methylene]-5-nitro-4-[(3-pyridinyl)ethynyl]-2H-indol-2-one], less than 1 µM; as for `COc1cc[nH]c1/C=C1\C(=O)Nc2ccc(N)c(C#Cc3cccnc3)c21` [HHH, (Z)-5-Amino-1,3-dihydro-3-[(3-methoxy-1H-pyrrol-2-yl)methylene]-4-[(3-pyridinyl)ethynyl]-2H-indol-2-one], less than 1 µM.

Broadly, the IC50 is the concentration that inhibits the measured activity by half. Read a high IC50 as a need for much substance.
